In the supplement of paper PMC12613149:
Counter-ions that a name gives are not always drawn.

What was measured:
[1] = reversed-phase LC retention time (C18, 15 min MeOH gradient); higher = more hydrophobic / later elution
[2] = collision cross section (TIMS, N2 drift gas) of the primary ion; higher = larger gas-phase ion size
[3] = ionization mode: ESI+, ion species: [M+H]+
[4] = ionization mode: ESI-, ion species: [M-H]-
[5] = ionization mode: ESI+, ion species: [M]+

Row | reversed-phase LC retention time [1, 3] [min] | reversed-phase LC retention time [1, 4] [min] | collision cross section [2, 3] [Å²] | collision cross section [2, 4] [Å²] | reversed-phase LC retention time [1, 5] [min] | collision cross section [2, 5] [Å²] | SMILES
1 | 15.7 | – | 198.29 | – | – | – | CC/C(=C(\c1ccccc1)c1ccc(OCCN(C)C)cc1)c1ccccc1 [Tamoxifen]
2 | – | 5.86 | – | 164.44 | – | – | O=C1c2c(O)cc(O)cc2O[C@H](c2ccc(O)c(O)c2)[C@H]1O [Taxifolin]
3 | 14.2 | 14.6 | 231.26 | 237.73 | – | – | CCCc1nc2c(C)cc(-c3nc4ccccc4n3C)cc2n1Cc1ccc(-c2ccccc2C(=O)O)cc1 [Telmisartan]
4 | 13.8 | – | 187.34 | – | – | – | CN(C/C=C/C#CC(C)(C)C)Cc1cccc2ccccc12 [Terbinafine]
5 | – | 12.4 | – | 151.91 | – | – | CCNc1nc(=O)nc(NC(C)(C)C)[nH]1 [Terbuthylazine-2-hydroxy]
6 | – | 15.3 | – | 192.83 | – | – | CC(C)(c1cc(Br)c(O)c(Br)c1)c1cc(Br)c(O)c(Br)c1 [Tetrabromobisphenol A]
7 | – | – | – | – | 11 | 167.79 | CCCC[N+](CCCC)(CCCC)CCCC [Tetrabutylammonium]
8 | 11.2 | – | 173.87 | – | – | – | CCCCNc1ccc(C(=O)OCCN(C)C)cc1 [Tetracain]
9 | – | 17.2 | – | 175.12 | – | – | CCCCCCCCCCCCCCOS(=O)(=O)O [Tetradecylsulfate]
10 | – | – | – | – | 16.5 | 187.45 | CCCCCCCCCCCCCC[N+](C)(C)C [Tetradecyltrimethylammonium]
11 | – | – | – | – | 1.03 | 123.33 | CC[N+](CC)(CC)CC [Tetraethylammonium]
12 | 8.94 | – | 152.39 | – | – | – | COCCOCCOCCOCCOC [Tetraglyme]
13 | 5.38 | – | 130.01 | – | – | – | O=C1NC(=O)C2CC=CCC12 (stereo unspecified) [Tetrahydrophthalimide]
14 | 5.81 | – | 130.33 | – | – | – | Cn1cnc2c1c(=O)[nH]c(=O)n2C [Theobromine]
15 | 6.64 | – | 135.99 | – | – | – | Cn1c(=O)c2[nH]cnc2n(C)c1=O [Theophyllin]
16 | 8.08 | – | 138.79 | – | – | – | c1ccc2[nH]c(-c3cscn3)nc2c1 [Thiabendazole]
17 | – | 6.79 | – | 115.69 | – | – | O=c1[nH]nc(C(F)(F)F)s1 [Thiadone]
18 | 16.6 | 14.2 | 156.85 | 158.38 | – | – | Cc1c(Cl)cccc1Nc1ccccc1C(=O)O [Tolfenamic acid]
19 | 11.5 | 12.4 | 188.49 | 184.59 | – | – | Cc1cccc(Nc2ccncc2S(=O)(=O)NC(=O)NC(C)C)c1 [Torasemide]
20 | 16.5 | – | 203.87 | – | – | – | CCCCOC(=O)CC(O)(CC(=O)OCCCC)C(=O)OCCCC [Tri-n-butyl citrate]

The next lines start with the compound.

Row | SMILES | reversed-phase LC retention time [1, 3] [min] | reversed-phase LC retention time [1, 4] [min] | collision cross section [2, 3] [Å²] | collision cross section [2, 4] [Å²] | reversed-phase LC retention time [1, 5] [min] | collision cross section [2, 5] [Å²]
21 | CCC(=O)[C@@]1(C)[C@H](C)C[C@H]2[C@@H]3CCC4=CC(=O)C=C[C@]4(C)[C@H]3[C@@H](O)C[C@@]21C [Rimexolone] | 16 | 16.4 | 192.28 | 191.62 | – | –
22 | Cc1nc2n(c(=O)c1CCN1CCC(c3noc4cc(F)ccc34)CC1)CCCC2 [Risperidone] | 10.4 | – | 205.9 | – | – | –
23 | CCCN(CCC)CCc1cccc2c1CC(=O)N2 [Ropinirole] | 7.95 | – | 163.51 | – | – | –
24 | CC[C@H]1OC(=O)[C@H](C)[C@@H](O[C@H]2C[C@@](C)(OC)[C@@H](O)[C@H](C)O2)[C@H](C)[C@@H](O[C@@H]2O[C@H](C)C[C@H](N(C)C)[C@H]2O)[C@](C)(O)C[C@@H](C)C(=NOCOCCOC)[C@H](C)[C@@H](O)[C@]1(C)O [Roxithromycin] | 14.1 | – | 277.32 | – | – | –
25 | CC1OC(OCC2OC(Oc3c(-c4ccc(O)c(O)c4)oc4cc(O)cc(O)c4c3=O)C(O)C(O)C2O)C(O)C(O)C1O (stereo unspecified) [Rutin] | 9.72 | 8.1 | 233.31 | 232.48 | – | –
26 | O=C1NS(=O)(=O)c2ccccc21 [Saccharin] | – | 4.8 | – | 128.86 | – | –
27 | CC[C@@H](C(=O)[C@@H](C)[C@@H](O)[C@H](C)[C@@H]1O[C@@H]([C@@H](CC)C(=O)O)CC[C@@H]1C)[C@H]1O[C@]2(C=C[C@@H](O)[C@]3(CC[C@@](C)([C@H]4CC[C@](O)(CC)[C@H](C)O4)O3)O2)[C@H](C)C[C@@H]1C [Salinomycin] | – | 18.5 | – | 263.17 | – | –
28 | CCCC[N+]1(C)[C@H]2CC(OC(=O)C(CO)c3ccccc3)C[C@H]1[C@H]1O[C@H]12 (stereo partly specified) [Scopolamine-N-butyl] | – | – | – | – | 9.85 | 188.31
29 | COc1cc2ccc(=O)oc2cc1O [Scopoletin] | – | 7.44 | – | 133.5 | – | –
30 | O=C(O)CCCCCCCCC(=O)O [Sebacic acid] | 17 | 3.2 | 176.16 | 142.73 | – | –
31 | C=CCC1(C(C)CCC)C(=O)NC(=O)NC1=O (stereo unspecified) [Secobarbital] | – | 12.7 | – | 153.23 | – | –
32 | CN[C@H]1CC[C@@H](c2ccc(Cl)c(Cl)c2)c2ccccc21 [Sertraline] | 13.8 | – | 168.55 | – | – | –
33 | CCNc1nc(NCC)[nH]c(=O)n1 [Simazine 2-Hydroxy] | 7.22 | 8.55 | 140.79 | 140.22 | – | –
34 | CCNc1nc(Cl)nc(NCC)n1 [Simazine] | 11.5 | – | 142.98 | – | – | –
35 | CCNc1nc(NCC)nc(SC)n1 [Simetryn] | 11.6 | – | 149.02 | – | – | –
36 | NC(CC(=O)N1CCn2c(nnc2C(F)(F)F)C1)Cc1cc(F)c(F)cc1F (stereo unspecified) [Sitagliptin] | 9.57 | 12.1 | 192.92 | 182.72 | – | –
37 | CC(C)NCC(O)c1ccc(NS(C)(=O)=O)cc1 (stereo unspecified) [Sotalol] | 5.7 | 7.58 | 166.72 | 170.22 | – | –
38 | CC[C@H]1CCC[C@H](O[C@H]2CC[C@H](N(C)C)[C@@H](C)O2)[C@@H](C)C(=O)C2=C[C@@H]3[C@@H](C=C[C@@H]4C[C@@H](O[C@@H]5O[C@@H](C)[C@H](OC)[C@@H](OC)[C@H]5OC)C[C@@H]34)[C@@H]2CC(=O)O1 [Spinosyn A] | 15.9 | – | 267.49 | – | – | –
39 | CCC(C)(C)C(=O)OC1=C(c2ccc(Cl)cc2Cl)C(=O)OC12CCCCC2 [Spirodiclofen] | 11.5 | – | 193.38 | – | – | –
40 | CCCN(CC)CC1COC2(CCC(C(C)(C)C)CC2)O1 (stereo unspecified) [Spiroxamine] | 14.2 | – | 177.53 | – | – | –
41 | OCC1OC(OC2(CCl)OC(CCl)C(O)C2O)C(O)C(O)C1Cl (stereo unspecified) [Sucralose] | – | 8.22 | – | 174.98 | – | –

Row | SMILES | reversed-phase LC retention time [1, 3] [min] | reversed-phase LC retention time [1, 4] [min] | collision cross section [2, 3] [Å²] | collision cross section [2, 4] [Å²] | reversed-phase LC retention time [1, 5] [min] | collision cross section [2, 5] [Å²]
42 | CS(=O)(=O)c1ccc(C(=O)C2C(=O)CCCC2=O)c(Cl)c1 [Sulcotrione] | 11.1 | 6.87 | 175.92 | 173.26 | – | –
43 | COc1cc(NS(=O)(=O)c2ccc(N)cc2)nc(OC)n1 [Sulfadimethoxine] | 9.96 | 6.81 | 170.07 | 170.58 | – | –
44 | Cc1cc(C)nc(NS(=O)(=O)c2ccc(N)cc2)n1 [Sulfamethazine] | 7.95 | 7.46 | 163.66 | 165.06 | – | –
45 | Nc1ccc(S(=O)(=O)Nc2ccccn2)cc1 [Sulfapyridine] | 6.69 | 6.7 | 154.05 | 155.15 | – | –
46 | Nc1ccc(S(=O)(=O)Nc2nccs2)cc1 [Sulfathiazole] | 6.39 | 5.71 | 153.27 | 152.72 | – | –
47 | O=P(OC(CCl)CCl)(OC(CCl)CCl)OC(CCl)CCl [TDCPP] | 15.5 | – | 177.62 | – | – | –
48 | CC(C)CC(C)(O)C#CC(C)(O)CC(C)C (stereo unspecified) [TMDD] | 16.4 | – | 168.69 | – | – | –
49 | CC(C)(C)C(O)(CCc1ccc(Cl)cc1)Cn1cncn1 (stereo unspecified) [Tebuconazole] | 15.5 | – | 168.02 | – | – | –
50 | CN1C(=O)C(O)N=C(c2ccccc2)c2cc(Cl)ccc21 (stereo unspecified) [Temazepam] | 13.4 | – | 167.53 | – | – | –
51 | CCC(=NOC/C=C/Cl)C1=C(O)CC(C2CCOCC2)CC1=O (stereo unspecified) [Tepraloxydim (two peaks)] | 14.7 | 9.17 | 186.68 | 181.89 | – | –
52 | CCNc1nc(Cl)nc(NC(C)(C)C)n1 [Terbuthylazine] | 14 | – | 153.3 | – | – | –
53 | CCNc1nc(NC(C)(C)C)nc(SC)n1 [Terbutryn] | 14 | – | 160.25 | – | – | –
54 | C[C@]12CC[C@H]3[C@@H](CCC4=CC(=O)CC[C@@]43C)[C@@H]1CC[C@@H]2O [Testosterone] | 14.2 | – | 172.76 | – | – | –
55 | NC(=O)/N=C1\SCCN1Cc1ccc(Cl)nc1 [Thiacloprid amide] | 8.75 | – | 159.22 | – | – | –
56 | N#C/N=C1/SCCN1Cc1ccc(Cl)nc1 [Thiacloprid] | 9.94 | 10 | 158.43 | 153.51 | – | –
57 | CN1COCN(Cc2cnc(Cl)s2)/C1=N/[N+](=O)[O-] [Thiamethoxam] | 7.66 | – | 159.96 | – | – | –
58 | COP(=S)(OC)Oc1c(Cl)cc(C)cc1Cl [Toclofos-methyl] | 15.8 | – | 151.78 | – | – | –
59 | COc1cccc([C@@]2(O)CCCC[C@@H]2CN(C)C)c1 [Tramadol] | 9.25 | – | 160.98 | – | – | –
60 | CCCCOCCOP(=O)(OCCOCCCC)OCCOCCCC [Tri(butoxyethyl)phosphate] | 16.7 | – | 198.12 | – | – | –
61 | CC(C)COP(=O)(OCC(C)C)OCC(C)C [Tri-isobutylphosphate] | 16.3 | – | 165.01 | – | – | –
62 | CC(C)N(C(=O)SCC(Cl)=C(Cl)Cl)C(C)C [Triallate] | 17.2 | – | 162.33 | – | – | –
